According to patent US10869878B2, “Vaginal composition and use thereof” (SINGAPORE ZE&Z INTERNATIONAL PTE. LTD, priority 2014, dated 2020):

How the values were obtained:
Format in all cases: cell-based
[1] = tested on: Gardnerella vaginalis in the secretions from BV patients; experiment: Selective promotion of carbohydrate containing gels for the growth of Gardnerella vaginalis (Experimental Example 4); settings: secretions from 20 BV patients; 1% (w/v) carbohydrate gel, 48 hrs slightly aerobic
Protocol: (§1) (3) After sampling, the vaginal secretion specimens from BV patients meeting the criteria of inclusion were immediately inoculated to the above 4 gels containing a carbohydrate, slightly aerobically incubated at 37° C. for 48 hrs, then transferred to a plate containing improved MRS with 1% (w/v) glucose and 5% (w/v) calf serum, slightly aerobically incubated for 20-48 hrs, isolated, purified and multiplied. The strain was identified by 16s rDNA sequencing.

[2] = tested on: BV-associated bacteria; experiment: Acid production by BV-associated bacteria, carbohydrates and antibacterial agents in combination (Experimental Example 3); settings: anaerobic, 37° C., 1.5% (w/v) carbohydrate, initial pH 5.4
Description: (1) Grouping in experiment: • (1) Sucrose-preservative group: containing 1.5% (w/v) sucrose, 0.5% (w/v) sodium propionate, 0.025% (w/v) sodium dehydroacetate, MRS basal medium without carbohydrate, 5% (w/v) calf serum, and 0.45% (w/v) agar, pH5.4; • (2) Isomaltose-preservative group: containing 1.5% (w/v) isomaltose, 0.5% (w/v) sodium propionate, 0.025% (w/v) sodium dehydroacetate, MRS basal medium without carbohydrate, 5% (w/v) calf serum, and 0.45% (w/v) agar, pH5.4; • (3) Isomaltulose-preservative group: containing 1.5% (w/v) isomaltulose, 0.5% (w/v) sodium propionate, 0.025% (w/v) sodium dehydroacetate, MRS basal medium without carbohydrate, 5% (w/v) calf serum, and 0.45% (w/v) agar, pH5.4; • (4) Sucrose control group: containing 1.5% (w/v) sucrose, MRS basal medium without carbohydrate, 5% (w/v) calf serum, and 0.45% (w/v) agar, pH5.4; • (5) Isomaltose control group: containing 1.5% (w/v) isomaltose, MRS basal medium without carbohydrate, 5% (w/v) calf serum, and 0.45% (w/v) agar, pH5.4; and • (6) Isomaltulose control group: containing 1.5% (w/v) isomaltulose, MRS basal medium without carbohydrate, 5% (w/v) calf serum, and 0.45% (w/v) agar, pH5.4.
The semi-solid agar of each group is formulated essentially following the method described in Composition Example 1, then sterilized, added with calf serum, and packed in test tubes in a specification of 5 g/tube, for late use.
(2) Secretion specimens from BV patients: vaginal secretions from 2 BV patients; and the criteria of inclusion are: • (1) conforming to the Amsel clinical criteria of BV diagnosis, wherein the pH value of the vaginal secretions was >4.6; • (2) after smearing, Gram staining, and microscopical examination of vaginal secretions, Nugent score ≥7; and • (3) no other vaginosis, and no antimicrobial agent is used within two weeks.
(3) After sampling, the vaginal secretion specimens from BV patients meeting the criteria of inclusion were immediately inoculated to 3 semi-solid agars containing a carbohydrate and a preservative and 3 control agars at the bedside, and anaerobically incubated at 37° C. for […]. The pH values of the agar matrices are detected with a precise pH test paper after 30 or 32 hrs and 40 or 48 hrs of incubation.

[3] = tested on: Lactobacilli in the secretions from BV patients; experiment: Selective promotion of carbohydrate containing gels for the growth of Lactobacilli, 16s rDNA identification (Experimental Example 4); settings: secretions from 20 BV patients; 1% (w/v) carbohydrate gel, 48 hrs slightly aerobic
Protocol: as §1

SMILES	number of samples positive for Gardnerella vaginalis [1]	samples positive for Gardnerella vaginalis, In total [1]	pH of the semi-solid agar ([2]; Specimen 1 (30 hrs))	pH of the semi-solid agar ([2]; Specimen 2 (32 hrs))	samples positive for Lactobacilli, In total [3]	total number of samples positive for L. amylovorus incubation [3]	total number of samples positive for L. crispatus incubation [3]	total number of samples positive for L. gasseri incubation [3]	total number of samples positive for L. iners incubation [3]	total number of samples positive for L. jensenii incubation [3]	total number of samples positive for L. mucosae incubation [3]
OC[C@H]1O[C@H](OC[C@H]2OC(O)[C@H](O)[C@@H](O)[C@@H]2O)[C@H](O)[C@@H](O)[C@@H]1O (stereo partly drawn) [Isomaltose, isomaltose]	2 (15, 19)	2	3.8	3.8-4.1	9	1	1	2	0	4	1
OC[C@H]1O[C@@](CO)(O[C@H]2O[C@H](CO)[C@@H](O)[C@H](O)[C@H]2O)[C@@H](O)[C@@H]1O [Sucrose, sucrose]	3 (8, 15, 19)	3	3.8	3.8	9	1	1	2	0	4	1
OC[C@H]1O[C@H](OC[C@H]2OC(O)(CO)[C@@H](O)[C@@H]2O)[C@H](O)[C@@H](O)[C@@H]1O (stereo partly drawn) [Isomaltulose, isomaltulose]	2 (15, 19)	2	3.8	3.8	9	1	1	2	0	4^1	1
